Measurements as given in US20190335749A1, “Adjustable Release Pesticide Tablet Formulations” (priority 2018, published 2019).

Assays:
[1] = cited from earlier work
[2] = TFM release rate in flow chamber, 11 L of water per minute; type: physicochemical; settings: flow of 11 L of water per minute; 20 g TFM; FIG. 8, FIG. 9
From the text: To scale up from the tablet press, a hand-driven compression clamp was assembled in a fashion to create a compressed 20 g TFM cylinder 1 inch in diameter or combination of tablets adding to 20 g total TFM. Variables investigated were matrix type (tea bag vs porous cotton mesh), tablet size, formulation, and compression strength of formulation. The resulting tablets were placed into a flow chamber with a flow of 11 L of water per minute and aliquots were taken at designated time periods to evaluate TFM release rates.
Tablets H, I and J were all prepared according to Tablet E except that increasing amounts of sand were added as a density modifier to ensure tablets remained submerged.

Compound	solubility in water [1]	TFM release rate [2]
[Cu+2].[OH-].[OH-] [Copper hydroxide]	extremely low solubility	
O=[N+]([O-])c1ccc([O-])cc1C(F)(F)F.[K+] [TFM phenoxide salt]		releases the fastest
O=C(O)COc1ccc(Cl)cc1Cl [neutral 2,4-D, 2,4-Dichlorophenoxyacetic Acid]	less water soluble	
